Experimental data reported in patent EP4700022A1, “CYP11A1 INHIBITORS AND USE THEREOF” (Xizang Haisco Pharmaceutical Co., Ltd., priority 2023, dated 2024).

Tests used:
[1] = tested on: testosterone level in NCI-H295R cells; assay: cells; type: cell-based; conditions: Homo sapiens, 72 h; for inhibition at 0.1 µM: read-out: Testosterone level in H295R (Elisa) inh.% 100 nM; for inhibition at 1 µM: read-out: Testosterone level in H295R (Elisa) inh.% 1000 nM; for IC50: read-out: IC50/nM
Experimental: 1. The purpose of the experimental study was intended to detect the testosterone level in the NCI-H295R cells by adopting the Enzyme linked immunosorbent assay (ELISA), so as to evaluate the inhibitory effects of the compounds on the testosterone level in the NCI-H295R cells. The H295R cells were purchased from ATCC, the cell complete medium contained DMEM: F12+ 10% FBS +0.00625 mg/ml insulin +0.00625 mg/ml transferrin+6.25 ng/ml selenium +1.25 mg/ml BSA+0.00535 mg/ml linoleic acid, and the cells were cultured in a 37°C, 5% CO2 incubator. The cells in the exponential growth phase were collected, and cultured in a cytokine-free medium (phenol red 1640-free +1% PS+10% css FBS+1.25 mg/ml BSA +0.00625 mg/ml insulin + 0.00625 mg/ml transferrin+6.25 ng/ml selenium+0.00535 mg/ml linoleic acid) for 3 days. The cells in the exponential growth phase were collected on the third day. The cell suspension was adjusted with a cytokine-free medium to a corresponding concentration and plated at 60000 cells/well, with the volume being 90 µL/well. Subsequently, 10 µL of the compounds at different concentrations was added and the plate was incubated in a CO2 incubator for 3 days. After the incubation was completed, according to the operation instructions for testosterone Elisa kit (Beyotime, PT872), 50 µL of the cell culture supernatant was collected from each well and centrifuged at 500 g for 5 min at room temperature and then the resulting supernatant was collected. The samples were added to the corresponding wells at 25 µl/well, and then formulated horseradish peroxidase labeled testosterone was added at 75 µl/well. The mixture was fully mixed for 10 seconds. The reaction wells were sealed with a plate-sealing film (white) and the mixture was incubated at room temperature in the dark for 120 min. The plate was washed 3 times with a volume of 300 µl per well, and then placed onto thick absorbent paper and dried. Chromogenic reagent TMB solution was added at 100 µl/well. The reaction wells were sealed with a plate-sealing film (white) and the mixture was incubated at room temperature in the dark for 15-20 min. Subsequently, a termination solution was added at 50 µl/well, and after the mixture was fully mixed, the absorbance value OD450 was immediately measured. The absorbance readings were processed using Graphpad Prim 8.0 software and S-shaped concentration curves were plotted and the IC50 values were calculated using a four-parameter non-linear regression model. The results were processed according to formula (1), the inhibition rate of the compound at different concentrations was calculated, and the IC50 value of the compound with an inhibition rate of 50% was calculated using Graphpad Prim 8.0 software, wherein RLU compound was the readout of the treated group, and RLU control was the average value of the solvent control group. Inhibition rate% = 100-RLUcompound /RLUcontrol × 100 [formula] Table 1. Inhibitory activity on testosterone level in NCI-H295R cells

[2] = Pharmacokinetic test in mice; type: in vivo; conditions: mouse, male ICR mice, plasma; for Vd: read-out: Vdss
Experimental: 4.1. Experimental animals: Male ICR mice, 20-25 g, 6 mice/compound, purchased from Chengdu Dossy Experimental Animals Co., Ltd.
4.2 Experimental design: on the day of the experiment, the ICR mice were randomly grouped according to their body weights. […] Table 5. Administration information
vehicle for intravenous administration: 5% DMA+5% HS-15+90% NS; vehicle for intragastric administration: 0.5% MC
Before and after administration, 0.06 mL of blood was taken from the orbit under isoflurane anesthesia and placed in an EDTAK2 centrifuge tube. The tube was centrifuged at 5000 rpm at 4°C for 10 min, and plasma was collected. […] Before analysis and detection, all samples were stored at -80°C, and the samples were quantitatively analyzed by LC-MS/MS. Table 6. Pharmacokinetic parameters of test compounds in plasma of mice

[3] = Pharmacokinetic test in rats; type: in vivo; conditions: rat, male SD rats, plasma; for Vd: read-out: Vdss
Experimental: 3.1 Experimental animals: Male SD rats (about 220 g, 6-8 weeks old, 6 rats/compound), purchased from Chengdu Dossy Experimental Animals Co., Ltd.
3.2 Experimental design: On the day of the experiment, the SD rats were randomly grouped by body weight. […] Table 3. Administration information
Before and after the administration, 0.1 ml of blood was taken from the orbit of the animals under isoflurane anesthesia and placed in an EDTAK2 centrifuge tube. The blood was centrifuged at 5000 rpm and 4°C for 10 min to collect plasma. […] Before analysis and detection, all samples were stored at -80°C. Table 4. Pharmacokinetic parameters of test compounds in plasma of rats

[4] = tested on: pregnenolone level in NCI-H295R cells; assay: cells; type: cell-based; conditions: Homo sapiens, 72 h; for IC50: read-out: Pregnenolone level in H295R (Elisa) IC50 nM
Experimental: 2. The purpose of the experimental study was intended to detect the pregnenolone level in the NCI-H295R cells by adopting the Enzyme linked immunosorbent assay (ELISA), so as to evaluate the inhibitory effects of the compounds on the pregnenolone level in the NCI-H295R cells.
The H295R cells were purchased from ATCC (CRL-2128), the cell complete medium contained DMEM: F12+ 10% FBS +0.00625 mg/ml insulin+0.00625 mg/mL transferrin+6.25 ng/mL selenium+1.25 mg/mL BSA+0.00535 mg/mL linoleic acid, and the cells were cultured in a 37°C, 5% CO2 incubator. The cells in the exponential growth phase were collected, and cultured in a cytokine-free medium (phenol red 1640-free +1% PS+10% css FBS+1.25 mg/mL BSA +0.00625 mg/mL insulin+0.00625 mg/mL transferrin+6.25 ng/mL selenium+0.00535 mg/mL linoleic acid) for 3 days. The cells in the exponential growth phase were collected on the third day. The cell suspension was adjusted with a cytokine-free medium to a corresponding concentration and plated at 60000 cells/well, with the volume being 90 µL/well. Subsequently, 10 µL of the compounds at different concentrations was added and the plate was incubated in a CO2 incubator for 3 days. After the incubation was completed, the cell culture supernatant was collected and centrifuged at 2°C-8°C at 800×g for 10 min. The resulting supernatant was collected. Determination was carried out according to the operation instructions for pregnenolone Elisa kit (Antibodies-A73791), and the OD450 signal was read.
2.1 Standard curve plotting. The standard concentration was taken as the abscissa and the OD450 value as the ordinate, the coordinate points of various standards were connected with a smooth line and a curve was fitted according to the four parameter logistic (4-PL) method.
2.2 Sample quantification: The corresponding concentration (CONC) of testosterone/pregnenolone in the sample was calculated using the absorbance value of the sample and the standard curve. According to formula (2), the inhibition rate of the compound at various concentrations was calculated, and S-shaped concentration curves were plotted and the IC50 values (i.e., concentration of the compound at which the inhibition rate was 50%) were calculated using a three parameter non-linear regression model in Graphpad Prim 8.0 software. CONC cpd was the concentration of the treated group, and CONC ctrl was the average concentration value of the solvent control group. Inhibition rate% = 100%-CONCepd /CONCctrl × 100% [formula]

[5] = po, intragastric administration (10 mg/kg)
[6] = intravenous administration (2.5 mg/kg)

SMILES | inhibition at 0.1 µM [1] [%] | inhibition at 1 µM [1] [%] | AUC(0-t) [2, 5] [ng·h/mL] | half-life [2, 5] [h] | AUC(0-t) [2, 6] [ng·h/mL] | clearance [2, 6] [mL/min/kg] | half-life [2, 6] [h] | Vd [2, 6] [L/kg] | IC50 [1] [nM] | AUC(0-t) [3, 5] [ng·h/mL] | half-life [3, 5] [h] | AUC(0-t) [3, 6] [ng·h/mL] | clearance [3, 6] [mL/min/kg] | half-life [3, 6] [h] | Vd [3, 6] [L/kg] | IC50 [4] [nM] | inhibition at 0.1 µM ([4]; read-out: Pregnenolone level in H295R (Elisa) inh.% 100 nM) [%] | inhibition at 1 µM ([4]; read-out: Pregnenolone level in H295R (Elisa) inh.% 1000 nM) [%]
CS(=O)(=O)N1CC(OC(=O)N2CCC3(CC2)CC(Oc2cc(CN4Cc5ccc(C(F)(F)F)cc5C4)ccn2)C3)C1 [Compound 38] | 68.2 | 81 | 13500 | 3.65 | 4360 | 9.45 | 4.11 | 2.78 |  |  |  |  |  |  |  |  |  | 
O=C(OC1CC1)N1CCC(CCOc2cc(CN3Cc4ccc(C(F)(F)F)cc4C3)ccn2)CC1 [Compound 40] |  |  |  |  |  |  |  |  | 77 | 4210 | 11.1 | 1950 | 19.1 | 9.77 | 9.21 |  |  | 
CS(=O)(=O)N1CCC(CCOc2cc(CN3Cc4ccc(C5CC5)cc4C3)ccn2)CC1 [Compound 50] | 51.7 | 89.4 | 7780 | 2.73 | 2360 | 17.3 | 3 | 3.37 | 130 |  |  |  |  |  |  |  |  | 
O=C(N[C@H]1CC[C@H](CCOc2cc(CN3Cc4ccc(C(F)(F)F)cc4C3)ccn2)CC1)OC1CC1 [Compound 51] | 74.4 | 78.5 |  |  |  |  |  |  |  | 13600 | 9.63 | 4000 | 9.32 | 8.52 | 4.58 |  |  | 
N#Cc1cc(CN2Cc3ccc(C(F)(F)F)cc3C2)cc2cc(C3CCN(C(=O)OC4CC4)CC3)oc12 [Compound 53] | 72.5 | 85.5 |  |  |  |  |  |  |  | 6750 | 8.13 | 3110 | 11 | 13.2 | 8.06 |  |  | 
COc1cc(CN2Cc3ccc(C(F)(F)F)cc3C2)cc2cc(C3CCN(C(=O)OC4CC4)CC3)oc12 [Compound 54] | 59.1 | 78.4 |  |  |  |  |  |  |  | 5840 | 7.74 | 3560 | 10.3 | 10.3 | 6.41 |  |  | 
O=C(N[C@H]1CC[C@H](CCOc2cc(CN3Cc4ccc(C5CC5)cc4C3)ccn2)CC1)C1CC1 [Compound 60] |  |  |  |  |  |  |  |  |  | 27100 | 2.36 | 6080 | 6.8 | 1.75 | 0.951 |  |  | 
[2H]C([2H])([2H])C(=O)N[C@H]1CC[C@H](CCOc2cc(CN3Cc4ccc(C(F)(F)F)cc4C3)ccn2)CC1 [Compound 62] |  |  |  |  |  |  |  |  | 151 | 41500 | 4.13 | 10800 | 3.97 | 3.81 | 1.11 | 142 |  | 
[2H]C([2H])([2H])n1cc(C(=O)N[C@H]2CC[C@H](CCOc3cc(CN4Cc5ccc(C(F)(F)F)cc5C4)ccn3)CC2)cn1 [Compound 63] | 64.4 | 76.4 | 20800 | 6.62 | 5530 | 7.37 | 4.7 | 2.36 | 92 |  |  |  |  |  |  | 272 |  | 
O=C(N[C@H]1CC[C@H](CCOc2cc(CN3Cc4ccc(C(F)(F)F)cc4C3)ccn2)CC1)C1CC1 [Compound 65] | 71 | 75 |  |  |  |  |  |  | 168 | 7550 | 6.58 | 2150 | 17.4 | 8.25 | 8.8 | 319 |  | 
O=C(N[C@H]1CC[C@H](CCOc2cc(CN3Cc4ccc(C(F)(F)F)cc4C3)ccn2)CC1)[C@@H]1CC1(F)F [Compound 71] | 74.9 | 86.9 |  |  |  |  |  |  |  |  |  |  |  |  |  |  | 43.9 | 57.5
